Results taken from patent publication US11286228B2, “Stilbene derivative and method for preparing same” (Ozchela Inc., priority 2016, dated 2022).
pEC50, pIC50: −log10 of the molar value.

Each molecule was assayed on mitochondria obtained from hepatocytes (assay: Inhibitory activity on calcium-induced mitochondrial swelling (absorbance 520 nm)). Details: Hepatocyte; calcium-induced swelling of extracted mitochondria; read-out: Test Example 4: inhibiting mitochondrial swelling (IC50).
Description: Cyclophilin is a key protein for forming permeability transition pores (PTP) in mitochondria. When permeability transition pores are formed, mitochondria swell, whereby the outer membrane thereof ruptures and thus cell death progresses. Such mitochondrial dysfunction causes many diseases including neurodegenerative diseases, cancer, and the like. Cyclosporine, a known cyclophilin inhibitor, is capable of preventing the formation of permeability transition pores to thus suppress mitochondrial swelling.
The mitochondrial swelling test was performed as follows. Specifically, the hepatocytes were disrupted using a Dounce tissue grinder. The disrupted cells were centrifuged at 700×g for 10 min and the supernatant was transferred into a new tube. The supernatant was centrifuged at 12,000×g for 15 min, thereby obtaining mitochondria.
When the extracted mitochondria were added with calcium, they swelled, which may be observed by measuring the absorbance at 520 nm. The stilbene derivatives are effective at inhibiting mitochondrial swelling due to calcium.
The activity of Compounds 1 to 155 of Tables 1 to 10 on inhibiting mitochondrial swelling may be determined based on IC50 values, and may be grouped as follows: […]
With `CCCCOC(=O)c1c(C=C(C)c2ccc(CC(C)(C)C)cc2)ccc(C)c1C` [Compound 86] the pIC50 was 4.30 to 5.30. With `CC(=Cc1ccccc1C(=O)OC(C)C)c1ccc(CC(C)(C)C)cc1` [Compound 89] the pIC50 was 4.30 to 5.30. `CCCCOC(=O)c1c(C)cccc1C=C(N)c1ccc(CC(C)(C)C)cc1` [Compound 99] showed a pIC50 of 4.30 to 5.30. `COc1ccccc1C=C(C#N)c1ccc(C)c(C)c1` [Compound 12] gave a pIC50 of 3.30 to 4.30. With `CC(C)C(C)c1ccc(C(C#N)=Cc2ccccc2C(=O)O)cc1` (stereo not drawn) [Compound 55] the pIC50 was 4.30 to 5.30. In the case of `CN1CCN(c2ccccc2C=C(C#N)c2ccc([N+](=O)[O-])cc2)CC1` [Compound 25], the pIC50 was 3.30 to 4.30. For `CC(C)(C)Cc1ccc(C=Cc2cccc(O)c2C(=O)O)cc1` [Compound 135], the pIC50 was > 5.30. With `CC(C)(C)Cc1ccc(C=Cc2cccc(N)c2C(=O)O)cc1` [Compound 137] the pIC50 was > 5.30. `CCCCOC(=O)c1ccccc1C=C(N)c1ccc(CC(C)(C)C)cc1C` [Compound 100] showed a pIC50 of 4.30 to 5.30. In the case of `CCCCCOC(=O)c1ccccc1C=C(C)c1ccc(CC(C)(C)C)cc1` [Compound 88], the pIC50 was 4.30 to 5.30. `COC(=O)c1ccccc1C=Cc1ccc(Cc2ccccc2)cc1` [Compound 128] gave a pIC50 of 4.30 to 5.30. Molecule `CC(=Cc1ccccc1C(=O)OCc1ccccc1)c1ccc(CC(C)(C)C)cc1` [Compound 92] has a pIC50 of 4.30 to 5.30. In the case of `CCCCOC(=O)c1c(C=Cc2ccc(CC(C)(C)C)cc2)ccc(C)c1C` [Compound 70], the pIC50 was 4.30 to 5.30. For `CC(C)(C)Cc1ccc(C(C#N)=Cc2ccccc2C(=O)O)cc1` [Compound 54], the pIC50 was > 5.30. `N#CC(=Cc1ccccc1CCc1ccc(Cl)cc1)c1ccc([N+](=O)[O-])cc1` [Compound 48] showed a pIC50 of 4.30 to 5.30. For `CCCCOC(=O)c1ccccc1C=C(C)c1ccc(CC(C)(C)C)cc1` [Compound 82], the pIC50 was 4.30 to 5.30. `COc1ccccc1C=C(C#N)c1ccc(C(C)C)cc1` [Compound 6] gave a pIC50 of 3.30 to 4.30. Work on `CC(=Cc1ccccc1C(=O)OC1CCCCC1)c1ccc(CC(C)(C)C)cc1` [Compound 93] yielded a pIC50 of 4.30 to 5.30. With `N#CC(=Cc1ccccc1Cc1c(Cl)cccc1Cl)c1ccc([N+](=O)[O-])cc1` [Compound 37] the pIC50 was 4.30 to 5.30. `CCCCOC(=O)c1ccccc1C=Cc1ccc(CC2CCCC2)cc1` [Compound 79] was tested, and the pIC50 was 4.30 to 5.30. `COc1ccccc1C=C(C#N)c1ccc(Cc2ccccc2)cc1` [Compound 20] was tested, and the pIC50 was > 5.30. With `CCCCOC(=O)c1cc(C)ccc1C=C(N)c1ccc(CC(C)(C)C)cc1` [Compound 101] the pIC50 was 4.30 to 5.30. `CC(C)(C)c1ccc(C(C#N)=Cc2ccccc2C(=O)O)cc1` [Compound 10] gave a pIC50 of 4.30 to 5.30. For `N#CC(=Cc1ccccc1CCc1ccccc1Cl)c1ccc([N+](=O)[O-])cc1` [Compound 46], the pIC50 was 4.30 to 5.30.

Each molecule was assayed against cyclophilin (assay: Cis-trans isomerase inhibitory activity (chymotrypsin-coupled Suc-AAPF-pNA cleavage, absorbance 390 nm)). Details: cyclophilin, chymotrypsin, Suc-AAPF-pNA; read-out: Test Example 1: cis-trans isomerase inhibitory activity (IC50).
Format: biochemical
Description: Chymotrypsin cleaves a trans-type alanine-proline peptide bond. When Suc-AAPF-pNA (a peptide substrate) and chymotrypsin are mixed, the trans-type peptide substrate is cleaved and the cis-type peptide substrate remains. The remaining cis-type peptide substrate is converted into a trans form by a cis-trans isomerase and is then cleaved again by chymotrypsin. When the cis-trans isomerase is present, chymotrypsin is able to cleave a larger amount of trans-type peptide substrate within a predetermined period of time, from which the activity of the cis-trans isomerase may be determined. The amount of the cleaved trans-type peptide substrate is measured using absorbance at 390 nm. Cyclophilin has cis-trans isomerase activity, and accelerates the cleavage of trans-type peptide substrate by chymotrypsin. When the stilbene derivatives of the present invention were treated together with cyclophilin, the cleavage of the peptide substrate by chymotrypsin was not observed to accelerate. Thereby, the stilbene derivatives of the invention can be concluded to inhibit the activity of cyclophilin.
Work on `CCCCOC(=O)c1c(C=C(C)c2ccc(CC(C)(C)C)cc2)ccc(C)c1C` [Compound 86] yielded a pIC50 of 6.70 to 7.70. For `CC(=Cc1ccccc1C(=O)OC(C)C)c1ccc(CC(C)(C)C)cc1` [Compound 89], the pIC50 was 6.70 to 7.70. With `CCCCOC(=O)c1c(C)cccc1C=C(N)c1ccc(CC(C)(C)C)cc1` [Compound 99] the pIC50 was 6.70 to 7.70. For `COc1ccccc1C=C(C#N)c1ccc(C)c(C)c1` [Compound 12], the pIC50 was 5.70 to 6.70. `CC(C)C(C)c1ccc(C(C#N)=Cc2ccccc2C(=O)O)cc1` (stereo not drawn) [Compound 55] gave a pIC50 of 6.70 to 7.70. Work on `CN1CCN(c2ccccc2C=C(C#N)c2ccc([N+](=O)[O-])cc2)CC1` [Compound 25] yielded a pIC50 of 5.70 to 6.70. In the case of `CC(C)(C)Cc1ccc(C=Cc2cccc(O)c2C(=O)O)cc1` [Compound 135], the pIC50 was ≥ 7.70. `CC(C)(C)Cc1ccc(C=Cc2cccc(N)c2C(=O)O)cc1` [Compound 137] was tested, and the pIC50 was ≥ 7.70. For `CCCCOC(=O)c1ccccc1C=C(N)c1ccc(CC(C)(C)C)cc1C` [Compound 100], the pIC50 was 6.70 to 7.70. For `CCCCCOC(=O)c1ccccc1C=C(C)c1ccc(CC(C)(C)C)cc1` [Compound 88], the pIC50 was 6.70 to 7.70. `COC(=O)c1ccccc1C=Cc1ccc(Cc2ccccc2)cc1` [Compound 128] showed a pIC50 of 6.70 to 7.70. Work on `CC(=Cc1ccccc1C(=O)OCc1ccccc1)c1ccc(CC(C)(C)C)cc1` [Compound 92] yielded a pIC50 of 6.70 to 7.70. Work on `CCCCOC(=O)c1c(C=Cc2ccc(CC(C)(C)C)cc2)ccc(C)c1C` [Compound 70] yielded a pIC50 of 6.70 to 7.70. With `CC(C)(C)Cc1ccc(C(C#N)=Cc2ccccc2C(=O)O)cc1` [Compound 54] the pIC50 was ≥ 7.70. Molecule `N#CC(=Cc1ccccc1CCc1ccc(Cl)cc1)c1ccc([N+](=O)[O-])cc1` [Compound 48] has a pIC50 of 6.70 to 7.70. `CCCCOC(=O)c1ccccc1C=C(C)c1ccc(CC(C)(C)C)cc1` [Compound 82] gave a pIC50 of 6.70 to 7.70. `COc1ccccc1C=C(C#N)c1ccc(C(C)C)cc1` [Compound 6] was tested, and the pIC50 was 5.70 to 6.70. Molecule `CC(=Cc1ccccc1C(=O)OC1CCCCC1)c1ccc(CC(C)(C)C)cc1` [Compound 93] has a pIC50 of 6.70 to 7.70. With `N#CC(=Cc1ccccc1Cc1c(Cl)cccc1Cl)c1ccc([N+](=O)[O-])cc1` [Compound 37] the pIC50 was 6.70 to 7.70. Work on `CCCCOC(=O)c1ccccc1C=Cc1ccc(CC2CCCC2)cc1` [Compound 79] yielded a pIC50 of 6.70 to 7.70. `COc1ccccc1C=C(C#N)c1ccc(Cc2ccccc2)cc1` [Compound 20] was tested, and the pIC50 was ≥ 7.70. `CCCCOC(=O)c1cc(C)ccc1C=C(N)c1ccc(CC(C)(C)C)cc1` [Compound 101] was tested, and the pIC50 was 6.70 to 7.70. For `CC(C)(C)c1ccc(C(C#N)=Cc2ccccc2C(=O)O)cc1` [Compound 10], the pIC50 was 6.70 to 7.70. `N#CC(=Cc1ccccc1CCc1ccccc1Cl)c1ccc([N+](=O)[O-])cc1` [Compound 46] was tested, and the pIC50 was 6.70 to 7.70.

Each molecule was assayed on hepatitis C virus (assay: Antiviral activity in HCV replicon cells (Renilla luciferase)). Details: Hepatitis C virus, 72 h, read-out: Test Example 3: antiviral activity (EC50).
Format: cell-based
Protocol: The antiviral activity of the stilbene derivatives on hepatitis C virus was measured. The replicon cells that stably replicate the hepatitis C virus genome were attached to a culture plate and cultured in a CO2 incubator at 37° C. for 24 hr. The replicon cells cultured for one day were washed with a PBS solution, treated with the compounds of the present invention, and then cultured for 72 hr. The stilbene derivative-treated replicon cells were washed with a cold PBS solution and added with 20 μL of a cell lysis solution so that the cells were lysed in ice for 20 min. 100 μL of a Renilla luciferase substrate was added thereto, after which the luminescence thereof was measured and thus the amount of the hepatitis C virus genome was estimated. The amount of the hepatitis C virus genome in the stilbene derivative-treated replicon cells according to the present invention relative to the amount of the hepatitis C virus genome in dimethylsulfoxide (DMSO)-treated replicon cells is shown.
Compounds 1 to 155 of Tables 1 to 10 may be grouped as follows based on the antiviral activity (EC50) values: […]
`COC(=O)c1ccccc1C=Cc1ccc(Cc2ccccc2)cc1` [Compound 128] was tested, and the pEC50 was 5.30 to 6.30. With `N#CC(=Cc1ccccc1CCc1ccc(Cl)cc1)c1ccc([N+](=O)[O-])cc1` [Compound 48] the pEC50 was 5.30 to 6.30.

Same assay, conditions: Hepatitis C virus; HCV replicon cells, 72 hr, Renilla luciferase, relative to DMSO; read-out: Test Example 3: antiviral activity (EC50)
Work on `CCCCOC(=O)c1c(C=C(C)c2ccc(CC(C)(C)C)cc2)ccc(C)c1C` [Compound 86] yielded a pEC50 of 5.30 to 6.30. With `CC(=Cc1ccccc1C(=O)OC(C)C)c1ccc(CC(C)(C)C)cc1` [Compound 89] the pEC50 was 5.30 to 6.30. With `CCCCOC(=O)c1c(C)cccc1C=C(N)c1ccc(CC(C)(C)C)cc1` [Compound 99] the pEC50 was 5.30 to 6.30. `COc1ccccc1C=C(C#N)c1ccc(C)c(C)c1` [Compound 12] showed a pEC50 of 4.30 to 5.30. Work on `CC(C)C(C)c1ccc(C(C#N)=Cc2ccccc2C(=O)O)cc1` (stereo not drawn) [Compound 55] yielded a pEC50 of 5.30 to 6.30. `CN1CCN(c2ccccc2C=C(C#N)c2ccc([N+](=O)[O-])cc2)CC1` [Compound 25] was tested, and the pEC50 was 4.30 to 5.30. `CC(C)(C)Cc1ccc(C=Cc2cccc(O)c2C(=O)O)cc1` [Compound 135] was tested, and the pEC50 was > 6.30. For `CC(C)(C)Cc1ccc(C=Cc2cccc(N)c2C(=O)O)cc1` [Compound 137], the pEC50 was > 6.30. In the case of `CCCCOC(=O)c1ccccc1C=C(N)c1ccc(CC(C)(C)C)cc1C` [Compound 100], the pEC50 was 5.30 to 6.30. For `CCCCCOC(=O)c1ccccc1C=C(C)c1ccc(CC(C)(C)C)cc1` [Compound 88], the pEC50 was 5.30 to 6.30. `CC(=Cc1ccccc1C(=O)OCc1ccccc1)c1ccc(CC(C)(C)C)cc1` [Compound 92] was tested, and the pEC50 was 5.30 to 6.30. `CCCCOC(=O)c1c(C=Cc2ccc(CC(C)(C)C)cc2)ccc(C)c1C` [Compound 70] was tested, and the pEC50 was 5.30 to 6.30. In the case of `CC(C)(C)Cc1ccc(C(C#N)=Cc2ccccc2C(=O)O)cc1` [Compound 54], the pEC50 was > 6.30. In the case of `CCCCOC(=O)c1ccccc1C=C(C)c1ccc(CC(C)(C)C)cc1` [Compound 82], the pEC50 was 5.30 to 6.30. `COc1ccccc1C=C(C#N)c1ccc(C(C)C)cc1` [Compound 6] was tested, and the pEC50 was 4.30 to 5.30. For `CC(=Cc1ccccc1C(=O)OC1CCCCC1)c1ccc(CC(C)(C)C)cc1` [Compound 93], the pEC50 was 5.30 to 6.30. `N#CC(=Cc1ccccc1Cc1c(Cl)cccc1Cl)c1ccc([N+](=O)[O-])cc1` [Compound 37] showed a pEC50 of 5.30 to 6.30. `CCCCOC(=O)c1ccccc1C=Cc1ccc(CC2CCCC2)cc1` [Compound 79] gave a pEC50 of 5.30 to 6.30. With `COc1ccccc1C=C(C#N)c1ccc(Cc2ccccc2)cc1` [Compound 20] the pEC50 was > 6.30. Work on `CCCCOC(=O)c1cc(C)ccc1C=C(N)c1ccc(CC(C)(C)C)cc1` [Compound 101] yielded a pEC50 of 5.30 to 6.30. `CC(C)(C)c1ccc(C(C#N)=Cc2ccccc2C(=O)O)cc1` [Compound 10] was tested, and the pEC50 was 5.30 to 6.30. `N#CC(=Cc1ccccc1CCc1ccccc1Cl)c1ccc([N+](=O)[O-])cc1` [Compound 46] was tested, and the pEC50 was 5.30 to 6.30.
